Reference: patent publication US20240383908A1, “SYNTHESIS AND APPLICATION OF PHOSPHATASE DEGRADER” (HINOVA PHARMACEUTICALS INC., priority 2021, published 2024)
Structures can show the parent of a compound that is named as a salt.

target: T1, SHP2 protein (Homo sapiens, UniProt Q06124); assay: Degradation activity on SHP2 protein in MIA Paca-2 cells (Western blot, DC50); format: cell-based; parameters: endogenous in cells; host or cells: MIA Paca-2 cells; conditions: read-out: Degradation activity for differenct cell lines MIA Paca-2 (DC50)
T1 sequence (Q06124 1-593): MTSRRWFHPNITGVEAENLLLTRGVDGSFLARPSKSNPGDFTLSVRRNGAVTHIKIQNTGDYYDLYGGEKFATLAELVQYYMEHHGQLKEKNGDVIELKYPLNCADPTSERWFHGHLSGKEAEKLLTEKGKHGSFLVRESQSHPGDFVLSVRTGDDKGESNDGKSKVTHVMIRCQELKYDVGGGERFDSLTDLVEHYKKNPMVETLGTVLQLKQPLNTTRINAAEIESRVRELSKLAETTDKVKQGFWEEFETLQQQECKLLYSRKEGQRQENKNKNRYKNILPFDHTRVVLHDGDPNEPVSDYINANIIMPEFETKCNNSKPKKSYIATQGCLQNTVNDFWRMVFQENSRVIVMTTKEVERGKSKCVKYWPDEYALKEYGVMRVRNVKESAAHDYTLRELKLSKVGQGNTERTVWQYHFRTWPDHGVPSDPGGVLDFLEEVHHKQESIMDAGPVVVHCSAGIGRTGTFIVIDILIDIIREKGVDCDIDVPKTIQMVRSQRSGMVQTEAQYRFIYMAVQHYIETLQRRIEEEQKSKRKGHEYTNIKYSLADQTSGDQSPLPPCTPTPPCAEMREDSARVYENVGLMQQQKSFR
Method in brief: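 DC50 is the concentration degrading 50% of SHP2 relative to DMSO control. It was derived by fitting Western blot band densitometry (anti-SHP2, GAPDH reference) from cells exposed 24 h to 0.1–100 nM compound in 0.1% DMSO.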

Question: For `CC1(N)CCN(c2cnc(Sc3cccc(NC(=O)c4ccc(CN5CCN(c6ccc7c(c6)C(=O)N(C6CCC(=O)NC6=O)C7=O)CC5)cc4)c3)cn2)CC1` (centres unmarked) [Compound 288], which DC50 is on record?
Answer: > 1000 nM

Question: With `NC1(CO)CCN(c2cnc(Sc3cccc(NC(=O)c4ccc(N5CCC(N6CC=C(c7ccc(C(=O)NCc8ccc9c(c8)CN(C8CCC(=O)NC8=O)C9=O)nc7)CC6)CC5)cc4)c3)cn2)CC1` (centres unmarked) [Compound 336] as the molecule, how does the DC50 read?
Answer: < 100 nM

Question: `CC1(N)CCN(c2cnc(Sc3cccc(NC(=O)c4ccc(N5CCC(N6CCN(c7ccc8c(c7)CN(C7CCC(=O)NC7=O)C8=O)CC6)CC5)c(F)c4)c3)cn2)CC1` (centres unmarked) [Compound 278] was tested. Which DC50 did it give?
Answer: > 1000 nM

Question: How did the DC50 turn out when `C[C@@H]1OCC2(CCN(c3cnc(Sc4cccc(NC(=O)c5ccc(N6CCC(N7CCN(c8ccc9c(c8)C(=O)N(C8CCC(=O)NC8=O)C9=O)CC7)CC6)c(F)c5)c4)cn3)CC2)[C@@H]1N` (some centres unmarked) [Compound 279] was run?
Answer: > 1000 nM

Question: How did the DC50 turn out when `CC1(N)CCN(c2cnc(Sc3cccc(NC(=O)c4ccc(N5CCC(N6C=C(c7ncc(C(=O)NCc8ccc9c(c8)CN(C8CCC(=O)NC8=O)C9=O)o7)CC6)CC5)c(F)c4)c3)cn2)CC1` (centres unmarked) [Compound 426] was run?
Answer: > 1000 nM

Question: For `CC1(N)CCN(c2cnc(Sc3cccc(NC(=O)C4CC45CCN(c4ccc(C(=O)NCc6ccc7c(c6)CN(C6CCC(=O)NC6=O)C7=O)nn4)CC5)c3)cn2)CC1` (centres unmarked) [Compound 299], which DC50 is on record?
Answer: > 1000 nM

Question: For `Cc1cc(N2CCC(N3CC=C(c4ccc(C(=O)NCc5ccc6c(c5)CN(C5CCC(=O)NC5=O)C6=O)nc4F)CC3)CC2)ccc1C(=O)Nc1cccc(Sc2cnc(N3CCC(C)(N)CC3)cn2)c1` (centres unmarked) [Compound 468], which DC50 is on record?
Answer: < 100 nM

Question: How did the DC50 turn out when `CC1(N)CCN(c2cnc(Sc3cccc(NC(=O)C4CC45CCN(c4ccc(CN6CCN(c7ccc8c(c7)CN(C7CCC(=O)NC7=O)C8=O)CC6)cc4F)CC5)c3)cn2)CC1` (centres unmarked) [Compound 272] was run?
Answer: > 1000 nM

Question: For `C[C@@H]1OCC2(CCN(c3cnc(Sc4cccc(NC(=O)c5ccc(N6CCC(N7CC=C(c8ccc(C(=O)NCc9ccc%10c(c9)CN(C9CCC(=O)NC9=O)C%10=O)c(F)n8)CC7)CC6)c(F)c5)c4)cn3)CC2)[C@@H]1N` (some centres unmarked) [Compound 472], which DC50 is on record?
Answer: 100 to 1000 nM

Question: How did the DC50 turn out when `C[C@@H]1OCC2(CCN(c3cnc(Sc4cccc(NCc5ccc(N6CCC(N7CC=C(c8ccc(C(=O)NCc9ccc%10c(c9)CN(C9CCC(=O)NC9=O)C%10=O)nc8Cl)CC7)CC6)c(F)c5)c4)cn3)CC2)[C@@H]1N` (some centres unmarked) [Compound 518] was run?
Answer: 100 to 1000 nM

Question: Which DC50 does the source give for `CC1(N)CCN(c2cnc(Sc3cccc(NC(=O)c4ccc(N5CCC(N6CC=C(c7ccc(C(=O)NCc8ccc9c(c8)CN(C8CCC(=O)NC8=O)C9=O)nc7)CC6)CC5)c(F)c4)c3)cn2)CC1` (centres unmarked) [Compound 295, hydrochloride] here?
Answer: < 100 nM

Question: `CC1(N)CCN(c2cnc(Sc3cccc(N4CCC(CN5CCN(c6ccc7c(c6)CN(C6CCC(=O)NC6=O)C7=O)CC5)CC4)c3)cn2)CC1` (centres unmarked) [Compound 341] was tested. Which DC50 did it give?
Answer: > 1000 nM

Question: Which DC50 does the source give for `Cc1cc(C(=O)Nc2cccc(Sc3cnc(N4CCC(C)(N)CC4)cn3)c2)ccc1N1CCC(N2CC=C(c3cnc(C(=O)NCc4ccc5c(c4)CN(C4CCC(=O)NC4=O)C5=O)cc3Cl)CC2)CC1` (centres unmarked) [Compound 452] here?
Answer: < 100 nM

Question: For `C[C@@H]1OCC2(CCN(c3cnc(Sc4cccc(NC(=O)c5ccc(N6CCC(N7CC=C(C8CCC(C(=O)NCc9ccc%10c(c9)CN(C9CCC(=O)NC9=O)C%10=O)CC8)CC7)CC6)c(F)c5)c4)cn3)CC2)[C@@H]1N` (some centres unmarked) [Compound 512], which DC50 is on record?
Answer: 100 to 1000 nM

Question: Which DC50 does the source give for `CC1(N)CCN(c2cnc(Sc3cccc(NC(=O)c4ccc(N5CCC(N6CC=C(c7cnc(C(=O)NCc8ccc9c(c8)CN(C8CCC(=O)NC8=O)C9=O)c(Cl)c7)CC6)CC5)nc4)c3)cn2)CC1` (centres unmarked) [Compound 431] here?
Answer: 100 to 1000 nM

Question: With `Cc1cc(C(=O)NCc2ccc3c(c2)CN(C2CCC(=O)NC2=O)C3=O)ncc1C1=CCN(C2CCN(c3ccc(C(=O)Nc4cccc(Sc5cnc(N6CCC(C)(N)CC6)cn5)c4)cc3F)CC2)CC1` (centres unmarked) [Compound 470] as the molecule, how does the DC50 read?
Answer: 100 to 1000 nM

Question: With `Cc1cc(C(=O)Nc2cccc(Sc3cnc(N4CCC(C)(N)CC4)cn3)c2)ccc1N1CCC(N2CC=C(c3ccc(C(=O)NCc4ccc5c(c4)CN(C4CCC(=O)NC4=O)C5=O)nc3Cl)CC2)CC1` (centres unmarked) [Compound 441] as the molecule, how does the DC50 read?
Answer: > 1000 nM

Question: For `C[C@@H]1OCC2(CCN(c3cnc(Sc4cccc(NC(=O)c5cccc(CN6CCN(c7ccc8c(c7)CN(C7CCC(=O)NC7=O)C8=O)CC6)c5)c4)cn3)CC2)[C@@H]1N` (some centres unmarked) [Compound 297], which DC50 is on record?
Answer: > 1000 nM

Question: For `CC1(N)CCN(c2ccc(-c3cccc(NC(=O)c4ccc(N5CCC(N6CC=C(c7ccc(C(=O)NCc8ccc9c(c8)CN(C8CCC(=O)NC8=O)C9=O)nn7)CC6)CC5)cc4)c3)cn2)CC1` (centres unmarked) [Compound 408], which DC50 is on record?
Answer: > 1000 nM

Question: How did the DC50 turn out when `C[C@@H]1OCC2(CCN(c3cnc(Sc4cccc(NC(=O)[C@H]5C[C@@H]5c5ccc(N6CCN(c7ccc(C(=O)NCc8ccc9c(c8)CN(C8CCC(=O)NC8=O)C9=O)nn7)CC6)c(F)c5)c4)cn3)CC2)[C@@H]1N` (some centres unmarked) [Compound 282] was run?
Answer: > 1000 nM

Question: `CC1(N)CCN(c2cnc(Sc3cccc(NC(=O)c4ccc(N5CCC(N6CCN(c7ccc(C(=O)NCc8ccc9c(c8)CN(C8CCC(=O)NC8=O)C9=O)cc7F)CC6)CC5)cc4)c3)cn2)CC1` (centres unmarked) [Compound 513] was tested. Which DC50 did it give?
Answer: < 100 nM

Question: How did the DC50 turn out when `Cc1cc(N2CCC(N3CC=C(c4cnc(C(=O)NCc5ccc6c(c5)CN(C5CCC(=O)NC5=O)C6=O)c(F)c4)CC3)CC2)ccc1C(=O)Nc1cccc(Sc2cnc(N3CCC(C)(N)CC3)cn2)c1` (centres unmarked) [Compound 438] was run?
Answer: < 100 nM

Question: `CC1(N)CCN(c2cnc(Sc3cccc(NC(=O)C4CC45CCC(N4CC=C(c6ccc(C(=O)NCc7ccc8c(c7)CN(C7CCC(=O)NC7=O)C8=O)nc6)CC4)CC5)c3)cn2)CC1` (single isomer, unassigned) [Compound 314] was tested. Which DC50 did it give?
Answer: > 1000 nM

Question: With `CC1(N)CCN(c2cnc(Sc3cccc(NC(=O)C4CCC(N5CC=C(c6ccc(C(=O)N7CCN(c8ccc9c(c8)CN(C8CCC(=O)NC8=O)C9=O)CC7)nc6)CC5)CC4)c3)cn2)CC1` (centres unmarked) [Compound 305] as the molecule, how does the DC50 read?
Answer: > 1000 nM

Question: With `C[C@@H]1OCC2(CCN(c3cnc(Sc4cccc(NC(=O)c5ccc(N6CCC(N7CC=C(c8cnc(C(=O)NCc9ccc%10c(c9)CN(C9CCC(=O)NC9=O)C%10=O)c(F)c8)CC7)CC6)c(F)c5)c4)cn3)CC2)[C@@H]1N` (some centres unmarked) [Compound 464] as the molecule, how does the DC50 read?
Answer: < 100 nM

Question: With `C[C@@H]1OCC2(CCN(c3cnc(Sc4cccc(NC(=O)c5ccc(N6CCC(N7CC=C(c8ccc(C(=O)NCc9ccc%10c(c9)CN(C9CCC(=O)NC9=O)C%10=O)cc8Cl)CC7)CC6)c(F)c5)c4)cn3)CC2)[C@@H]1N` (some centres unmarked) [Compound 459] as the molecule, how does the DC50 read?
Answer: < 100 nM

Question: `CC1(N)CCN(c2cnc(Sc3cccc(NC(=O)c4ccc(N5CCC(N6CC=C(c7cnc(C(=O)NCc8ccc9c(c8)CN(C8CCC(=O)NC8=O)C9=O)c(F)c7)CC6)CC5)nc4)c3)cn2)CC1` (centres unmarked) [Compound 428] was tested. Which DC50 did it give?
Answer: 100 to 1000 nM

Question: How did the DC50 turn out when `CC1(N)CCN(c2cnc(Sc3cccc(NC(=O)C4CC45CCC(N4CC=C(c6ccc(C(=O)NCc7ccc8c(c7)CN(C7CCC(=O)NC7=O)C8=O)nn6)CC4)CC5)c3)cn2)CC1` (single isomer, unassigned) [Compound 319] was run?
Answer: > 1000 nM

Question: Which DC50 does the source give for `CC1(N)CCN(c2cnc(Sc3cccc(NC(=O)C4(c5ccc(N6CCN(c7ccc(C(=O)NCc8ccc9c(c8)CN(C8CCC(=O)NC8=O)C9=O)nc7)CC6)cc5)CC4)c3)cn2)CC1` (centres unmarked) [Compound 332] here?
Answer: > 1000 nM

Question: Which DC50 does the source give for `CC1(N)CCN(c2cnc(Sc3cccc(NC(=O)c4ccc(N5CCC(N6CCN(c7ccc(C(=O)NCc8ccc9c(c8)CN(C8CCC(=O)NC8=O)C9=O)nn7)CC6)CC5)cc4)c3)cn2)CC1` (centres unmarked) [Compound 389] here?
Answer: < 100 nM

Question: Which DC50 does the source give for `CC1(N)CCN(c2cnc(Sc3cccc(NC(=O)c4ccc(N5CCC(N6CCN(c7ccc8c(c7)C(=O)N(C7CCC(=O)NC7=O)C8=O)CC6)CC5)c(F)c4)c3)cn2)CC1` (centres unmarked) [Compound 277] here?
Answer: > 1000 nM

Question: Which DC50 does the source give for `CC1(N)CCN(c2cnc(Sc3cccc(NC(=O)c4ccc(N5CCC(N6CCN(c7ccc(C(=O)NCc8ccc9c(c8)CN(C8CCC(=O)NC8=O)C9=O)nn7)CC6)CC5)cn4)c3)cn2)CC1` (centres unmarked) [Compound 447] here?
Answer: > 1000 nM
